The source made the active and inactive calls. No cut-off for these calls is given here.
Tests used:
[1] = molecular target: Dual specificity tyrosine-phosphorylation-regulated kinase 1A (Homo sapiens, UniProt Q13627); assay: Inhibition of DYRK1A (unknown origin) at 1110 nM in the presence of ATP by Kinome scan method relative to control; conditions: time > 6.0 hrs
[2] = molecular target: Serine/threonine-protein kinase Chk1 (Homo sapiens) (UniProt O14757); assay: Inhibition of CHEK1 (unknown origin) at 1000 nM in the presence of ATP by Kinome scan method relative to control
[3] = species on record: Homo sapiens; assay: Inhibition of CDK2/cyclin A (unknown origin) at 100 nM in the presence of ATP by Kinome scan method relative to control
[4] = tested on: HCT-116; assay: Induction of cell cycle arrest in human HCT-116 cells assessed as S phase at 10 uM incubated for 24 hrs by flow cytometry analysis (Rvb=46.4%); type: functional
[5] = molecular target: Protein kinase C theta type (Homo sapiens) (UniProt Q04759); assay: Inhibition of PRKCQ (unknown origin) at 100 nM in the presence of ATP by Kinome scan method relative to control
[6] = molecular target: Glycogen synthase kinase-3 beta (Homo sapiens) (UniProt P49841); assay: Inhibition of GSK3B (unknown origin) at 100 nM in the presence of ATP by Kinome scan method relative to control
[7] = tested on: HCT-116; assay: Induction of apoptosis in human HCT-116 cells assessed as early apoptosis at 0.5 uM incubated for > 6 hrs by annexin V/PI staining based analysis (Rvb=3.29%); type: functional
[8] = molecular target: Death-associated protein kinase 1 (Homo sapiens) (UniProt P53355); assay: Inhibition of DAPK1 (unknown origin) at 1000 nM in the presence of ATP by Kinome scan method relative to control
[9] = molecular target: cAMP-dependent protein kinase catalytic subunit alpha (Homo sapiens) (UniProt P17612); assay: Inhibition of PRKACA (unknown origin) at 100 nM in the presence of ATP by Kinome scan method relative to control
[10] = molecular target: Dual specificity protein kinase CLK1 (Homo sapiens) (UniProt P49759); assay: Inhibition of CLK (unknown origin) in human MDA-MB-468 cells assessed as SRSF4 phosphorylation level incubated for 3 hrs by immunoblot analysis; type: cell-based
[11] = tested on: HCT-116; assay: Induction of apoptosis in human HCT-116 cells assessed as viable cells at 0.5 uM incubated for > 6 hrs by annexin V/PI staining based analysis (Rvb=90.04%); type: functional; conditions: read-out: Activity
[12] = tested on: HCT-116; assay: Induction of cell cycle arrest in human HCT-116 cells assessed as G0/G1 phase at 1 uM incubated for 6 hrs by flow cytometry analysis (Rvb=35.0%); type: functional
[13] = molecular target: Calcium/calmodulin-dependent protein kinase type 1 (Homo sapiens) (UniProt Q14012); assay: Inhibition of CAMK1 (unknown origin) at 1000 nM in the presence of ATP by Kinome scan method relative to control
[14] = molecular target: Ephrin type-A receptor 5 (Homo sapiens) (UniProt P54756); assay: Inhibition of EPHA5 (unknown origin) at 1000 nM in the presence of ATP by Kinome scan method relative to control
Ephrin type-A receptor 5 (Homo sapiens), sequence (P54756 whole entry): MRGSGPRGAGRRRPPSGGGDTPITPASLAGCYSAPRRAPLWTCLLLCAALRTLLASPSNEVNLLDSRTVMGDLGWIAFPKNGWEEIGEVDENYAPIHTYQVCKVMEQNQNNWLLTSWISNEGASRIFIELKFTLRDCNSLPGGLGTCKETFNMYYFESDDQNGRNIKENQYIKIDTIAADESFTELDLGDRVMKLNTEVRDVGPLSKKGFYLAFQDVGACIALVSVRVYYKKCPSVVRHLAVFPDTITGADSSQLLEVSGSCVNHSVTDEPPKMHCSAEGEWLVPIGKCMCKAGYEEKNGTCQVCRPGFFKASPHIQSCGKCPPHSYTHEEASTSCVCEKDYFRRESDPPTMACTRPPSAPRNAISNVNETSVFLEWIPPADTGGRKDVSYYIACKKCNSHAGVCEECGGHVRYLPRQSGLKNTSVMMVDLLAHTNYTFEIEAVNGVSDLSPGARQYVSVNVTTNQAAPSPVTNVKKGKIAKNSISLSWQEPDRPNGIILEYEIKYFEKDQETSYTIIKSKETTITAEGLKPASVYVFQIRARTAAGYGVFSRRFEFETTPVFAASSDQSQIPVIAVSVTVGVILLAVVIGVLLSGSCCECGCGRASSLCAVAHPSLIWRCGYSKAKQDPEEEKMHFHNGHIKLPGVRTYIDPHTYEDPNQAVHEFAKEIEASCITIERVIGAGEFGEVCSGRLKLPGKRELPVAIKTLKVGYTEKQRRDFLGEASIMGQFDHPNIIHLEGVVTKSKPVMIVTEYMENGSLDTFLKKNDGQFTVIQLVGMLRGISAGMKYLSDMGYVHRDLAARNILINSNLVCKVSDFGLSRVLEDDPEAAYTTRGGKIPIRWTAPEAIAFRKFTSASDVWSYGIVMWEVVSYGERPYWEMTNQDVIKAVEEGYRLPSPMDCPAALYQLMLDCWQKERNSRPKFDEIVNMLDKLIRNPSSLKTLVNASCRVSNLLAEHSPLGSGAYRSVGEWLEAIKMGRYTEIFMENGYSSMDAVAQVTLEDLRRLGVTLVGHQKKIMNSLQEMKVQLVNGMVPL

[15] = tested on: HCT-116; assay: Induction of cell cycle arrest in human HCT-116 cells assessed as G0/G1 phase at 0.5 uM incubated for 24 hrs by flow cytometry analysis (Rvb=35.7%); type: functional
[16] = molecular target: PI3-kinase p110-alpha/p85-alpha (Homo sapiens) (UniProt P27986+P42336); assay: Inhibition of PIK3CA/PIK3R1 (unknown origin) at 100 nM in the presence of ATP by Kinome scan method relative to control; type: protein-complex assay
[17] = tested on: HCT-116; assay: Induction of apoptosis in human HCT-116 cells assessed as necrosis cells at 0.5 uM incubated for > 6 hrs by annexin V/PI staining based analysis (Rvb=0.55%); type: functional
[18] = molecular target: Inhibitor of nuclear factor kappa-B kinase subunit beta (Homo sapiens) (UniProt O14920); assay: Inhibition of IKBKB (unknown origin) at 1000 nM in the presence of ATP by Kinome scan method relative to control
Inhibitor of nuclear factor kappa-B kinase subunit beta (Homo sapiens), sequence (O14920 whole entry): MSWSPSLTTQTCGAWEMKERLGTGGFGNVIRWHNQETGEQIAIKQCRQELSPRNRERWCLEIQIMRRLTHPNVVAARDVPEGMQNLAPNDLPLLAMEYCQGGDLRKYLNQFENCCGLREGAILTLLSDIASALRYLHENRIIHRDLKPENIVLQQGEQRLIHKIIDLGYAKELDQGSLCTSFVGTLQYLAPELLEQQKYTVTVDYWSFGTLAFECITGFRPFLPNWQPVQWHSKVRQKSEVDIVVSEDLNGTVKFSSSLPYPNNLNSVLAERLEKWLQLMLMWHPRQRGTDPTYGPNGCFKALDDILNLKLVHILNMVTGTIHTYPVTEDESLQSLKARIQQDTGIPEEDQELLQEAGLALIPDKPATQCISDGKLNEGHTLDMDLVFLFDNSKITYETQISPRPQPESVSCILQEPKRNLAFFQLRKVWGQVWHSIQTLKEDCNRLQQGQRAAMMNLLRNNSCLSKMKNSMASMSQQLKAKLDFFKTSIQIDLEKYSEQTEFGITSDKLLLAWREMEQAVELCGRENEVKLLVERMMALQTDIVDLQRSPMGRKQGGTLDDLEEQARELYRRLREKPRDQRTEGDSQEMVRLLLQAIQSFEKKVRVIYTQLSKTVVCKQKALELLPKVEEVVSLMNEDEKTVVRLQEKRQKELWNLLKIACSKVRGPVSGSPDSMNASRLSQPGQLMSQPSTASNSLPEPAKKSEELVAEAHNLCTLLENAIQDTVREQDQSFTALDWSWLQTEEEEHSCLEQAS

[19] = tested on: HCT-116; assay: Induction of cell cycle arrest in human HCT-116 cells assessed as G2/M phase at 10 uM incubated for 24 hrs by flow cytometry analysis (Rvb=17.9%); type: functional
[20] = molecular target: RAC-alpha serine/threonine-protein kinase (Homo sapiens) (UniProt P31749); assay: Inhibition of AKT1 (unknown origin) at 100 nM in the presence of ATP by Kinome scan method relative to control
[21] = tested on: HCT-116; assay: Induction of cell cycle arrest in human HCT-116 cells assessed as sub G0/G1 phase at 5 uM incubated for 6 hrs by flow cytometry analysis (Rvb=1.6%); type: functional
[22] = Stability of compound in tissue culture medium assessed as remaining parent compound at 5.44 uM incubated for 6 hrs; type: physicochemical; conditions: read-out: Stability
[23] = molecular target: Mast/stem cell growth factor receptor Kit (Homo sapiens) (UniProt P10721); assay: Inhibition of KIT (unknown origin) at 1000 nM in the presence of ATP by Kinome scan method relative to control
Mast/stem cell growth factor receptor Kit (Homo sapiens), sequence (P10721 whole entry): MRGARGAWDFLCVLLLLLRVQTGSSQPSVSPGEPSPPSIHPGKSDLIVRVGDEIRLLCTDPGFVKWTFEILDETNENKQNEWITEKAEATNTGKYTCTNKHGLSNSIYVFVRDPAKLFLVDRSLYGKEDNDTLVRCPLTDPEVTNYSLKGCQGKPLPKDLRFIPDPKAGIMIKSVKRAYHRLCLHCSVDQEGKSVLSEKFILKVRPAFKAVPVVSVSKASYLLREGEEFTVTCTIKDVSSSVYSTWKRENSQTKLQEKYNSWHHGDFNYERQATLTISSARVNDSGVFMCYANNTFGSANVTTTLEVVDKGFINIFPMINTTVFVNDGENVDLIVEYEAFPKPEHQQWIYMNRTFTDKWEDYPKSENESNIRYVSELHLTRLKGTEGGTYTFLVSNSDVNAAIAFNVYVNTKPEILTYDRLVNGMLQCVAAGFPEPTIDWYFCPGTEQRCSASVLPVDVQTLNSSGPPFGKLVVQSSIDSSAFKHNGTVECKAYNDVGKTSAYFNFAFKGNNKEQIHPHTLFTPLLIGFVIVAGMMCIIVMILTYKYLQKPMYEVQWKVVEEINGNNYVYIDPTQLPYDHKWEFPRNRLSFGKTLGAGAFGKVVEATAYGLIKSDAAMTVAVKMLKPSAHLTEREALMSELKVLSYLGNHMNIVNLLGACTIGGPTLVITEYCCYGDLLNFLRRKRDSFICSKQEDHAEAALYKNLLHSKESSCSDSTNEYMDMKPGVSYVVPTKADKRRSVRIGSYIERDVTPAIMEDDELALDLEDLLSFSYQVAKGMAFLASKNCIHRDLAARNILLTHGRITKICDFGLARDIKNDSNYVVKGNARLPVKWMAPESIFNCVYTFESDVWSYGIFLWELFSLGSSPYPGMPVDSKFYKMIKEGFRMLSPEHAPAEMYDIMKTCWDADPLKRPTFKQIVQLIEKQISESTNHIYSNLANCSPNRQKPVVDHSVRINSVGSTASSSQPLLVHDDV

[24] = tested on: HCT-116; assay: Cytotoxicity against human HCT-116 cells assessed as inhibition of cell viability incubated for > 24 hrs; type: functional
[25] = molecular target: Serine/threonine-protein kinase Chk2 (Homo sapiens) (UniProt O96017); assay: Inhibition of CHEK2 (unknown origin) at 100 nM in the presence of ATP by Kinome scan method relative to control
Serine/threonine-protein kinase Chk2 (Homo sapiens), sequence (O96017 whole entry): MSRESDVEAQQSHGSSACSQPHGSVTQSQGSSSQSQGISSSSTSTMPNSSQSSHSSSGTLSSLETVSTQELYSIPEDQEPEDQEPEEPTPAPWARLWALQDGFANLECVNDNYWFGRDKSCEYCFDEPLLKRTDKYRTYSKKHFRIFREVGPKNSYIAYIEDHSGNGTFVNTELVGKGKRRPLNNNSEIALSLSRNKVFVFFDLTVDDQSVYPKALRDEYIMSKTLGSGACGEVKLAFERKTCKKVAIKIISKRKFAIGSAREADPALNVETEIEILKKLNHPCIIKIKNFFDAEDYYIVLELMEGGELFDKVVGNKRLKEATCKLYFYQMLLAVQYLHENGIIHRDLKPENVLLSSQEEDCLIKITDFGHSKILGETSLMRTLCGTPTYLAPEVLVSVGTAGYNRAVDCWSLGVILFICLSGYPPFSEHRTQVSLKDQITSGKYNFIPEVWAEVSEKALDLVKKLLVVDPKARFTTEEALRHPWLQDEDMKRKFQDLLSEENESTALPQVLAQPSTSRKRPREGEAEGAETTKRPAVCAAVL

[26] = molecular target: Rho-associated protein kinase 1 (Homo sapiens) (UniProt Q13464); assay: Inhibition of ROCK1 (unknown origin) at 1000 nM in the presence of ATP by Kinome scan method relative to control
Rho-associated protein kinase 1 (Homo sapiens), sequence (Q13464 2-1354 limits assumed): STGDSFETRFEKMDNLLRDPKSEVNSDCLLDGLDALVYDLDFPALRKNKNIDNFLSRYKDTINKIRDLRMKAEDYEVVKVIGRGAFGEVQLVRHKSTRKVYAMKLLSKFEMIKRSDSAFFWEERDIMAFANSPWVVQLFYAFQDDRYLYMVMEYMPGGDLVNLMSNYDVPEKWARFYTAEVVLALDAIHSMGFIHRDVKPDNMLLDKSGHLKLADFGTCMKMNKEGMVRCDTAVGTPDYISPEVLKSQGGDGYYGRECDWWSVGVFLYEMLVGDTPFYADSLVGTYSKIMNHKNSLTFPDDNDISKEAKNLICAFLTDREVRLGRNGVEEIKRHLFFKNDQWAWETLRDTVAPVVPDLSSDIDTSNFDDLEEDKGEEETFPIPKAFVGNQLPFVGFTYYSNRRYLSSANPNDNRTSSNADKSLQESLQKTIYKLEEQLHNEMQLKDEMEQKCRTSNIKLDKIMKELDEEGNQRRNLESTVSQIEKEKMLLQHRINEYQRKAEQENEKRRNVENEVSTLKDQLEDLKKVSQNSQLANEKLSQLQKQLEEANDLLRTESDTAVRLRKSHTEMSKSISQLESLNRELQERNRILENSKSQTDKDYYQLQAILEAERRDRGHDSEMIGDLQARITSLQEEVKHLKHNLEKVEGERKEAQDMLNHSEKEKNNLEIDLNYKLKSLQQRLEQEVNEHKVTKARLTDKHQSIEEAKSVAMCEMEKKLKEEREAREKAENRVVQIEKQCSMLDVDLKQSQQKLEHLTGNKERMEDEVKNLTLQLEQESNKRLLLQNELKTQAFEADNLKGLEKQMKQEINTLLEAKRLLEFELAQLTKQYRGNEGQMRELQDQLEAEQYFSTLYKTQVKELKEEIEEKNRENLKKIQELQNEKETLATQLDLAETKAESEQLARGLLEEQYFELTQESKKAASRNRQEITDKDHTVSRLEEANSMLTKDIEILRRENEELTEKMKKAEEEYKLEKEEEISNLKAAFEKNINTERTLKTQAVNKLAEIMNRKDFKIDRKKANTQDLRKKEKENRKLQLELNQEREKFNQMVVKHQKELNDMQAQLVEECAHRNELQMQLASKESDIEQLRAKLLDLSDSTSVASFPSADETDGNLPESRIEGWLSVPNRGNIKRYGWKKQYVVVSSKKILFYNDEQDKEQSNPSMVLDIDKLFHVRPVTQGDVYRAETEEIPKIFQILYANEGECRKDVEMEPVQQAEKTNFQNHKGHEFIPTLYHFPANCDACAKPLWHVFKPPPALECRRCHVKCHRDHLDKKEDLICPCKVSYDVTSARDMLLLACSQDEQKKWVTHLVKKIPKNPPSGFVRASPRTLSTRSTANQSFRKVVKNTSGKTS

[27] = molecular target: Dual specificity mitogen-activated protein kinase kinase 1 (Homo sapiens) (UniProt Q02750); assay: Inhibition of MAP2K1 (unknown origin) at 100 nM in the presence of ATP by Kinome scan method relative to control
Dual specificity mitogen-activated protein kinase kinase 1 (Homo sapiens), sequence (Q02750 whole entry): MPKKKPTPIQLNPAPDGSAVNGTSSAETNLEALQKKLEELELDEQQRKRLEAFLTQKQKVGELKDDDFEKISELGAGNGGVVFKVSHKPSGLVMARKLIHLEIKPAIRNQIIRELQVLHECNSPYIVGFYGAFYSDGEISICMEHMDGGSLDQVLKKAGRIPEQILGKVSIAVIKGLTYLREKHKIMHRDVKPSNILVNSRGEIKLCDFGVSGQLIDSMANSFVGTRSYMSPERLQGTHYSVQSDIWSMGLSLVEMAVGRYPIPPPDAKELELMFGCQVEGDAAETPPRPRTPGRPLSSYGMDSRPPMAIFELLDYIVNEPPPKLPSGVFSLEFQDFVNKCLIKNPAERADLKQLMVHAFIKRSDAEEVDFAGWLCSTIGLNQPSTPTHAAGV

[28] = molecular target: CDK7/Cyclin H/MNAT1 (Homo sapiens) (UniProt P51946+P50613+P51948); assay: Inhibition of CDK7/cyclin H/MNAT1 (unknown origin) at 1000 nM in the presence of ATP by Kinome scan method relative to control; type: protein-complex assay
[29] = molecular target: Dual specificity tyrosine-phosphorylation-regulated kinase 1B (Homo sapiens, UniProt Q9Y463); assay: Inhibition of DYRK1B (unknown origin) at 1110 nM in the presence of ATP by Kinome scan method relative to control; conditions: time > 6.0 hrs
[30] = tested on: HCT-116; assay: Induction of cell cycle arrest in human HCT-116 cells assessed as S phase at 0.5 uM incubated for 24 hrs by flow cytometry analysis (Rvb=46.4%); type: functional
[31] = molecular target: Mast/stem cell growth factor receptor Kit (Homo sapiens) (UniProt P10721); assay: Inhibition of KIT (unknown origin) at 100 nM in the presence of ATP by Kinome scan method relative to control
[32] = tested on: HCT-116; assay: Induction of cell cycle arrest in human HCT-116 cells assessed as S phase at 0.1 uM incubated for 24 hrs by flow cytometry analysis (Rvb=46.4%); type: functional

inhibition [1]: 97%
inhibition [2]: 18%
inhibition [3]: 0%
inhibition [5]: 5%
inhibition [6]: -3%
inhibition [9]: -2%
inhibition [10]: Active
inhibition [13]: 5%
inhibition [14]: -5%
inhibition [16]: 4%
inhibition [18]: -5%
inhibition [20]: -8%
remaining at 6 h, 5.44 µM [22]: 98.9%
inhibition [23]: 37%
inhibition [25]: 22%
inhibition [26]: 9%
inhibition [27]: 12%
inhibition [28]: -3%
inhibition [29]: 94%
inhibition [31]: 11%
Compound: CN1CCN(C(=O)C(C)(C)c2ccc(C(=O)Nc3cn4cc(-c5ccncc5)ccc4n3)cc2)CC1 [T3-CLK]
Activity [4]: 41%
Activity [7]: 3.04%
inhibition [8]: -6%
viability at 0.5 µM [11]: 89.4%
Activity [12]: 18.4%
Activity [15]: 11.4%
Activity [17]: 0.69%
Activity [19]: 37.7%
Activity [21]: 2.2%
GI [24]: 0.133 µM
Activity [30]: 20.5%
Activity [32]: 40.7%

From ChEMBL document CHEMBL5696444 (Nat Commun, 2017)
